Source: ChEMBL document CHEMBL2021794, “Synthesis, σ₁, σ₂-receptors binding affinity and antiproliferative action of new C1-substituted adamantanes” (Bioorg Med Chem, 2012)
Activity calls are given as the source filed them. The calls are words filed in the database; no cut-off is given here.

Legend:
[1] = system: PC-3; assay: Cell cycle arrest in human PC3 cells assessed as accumulation at < G1 phase at 5 uM after 24 hrs by propidium iodide staining based flow cytometry (reference value: 4%); type: functional
[2] = Displacement of [3H]BTX-B from Na+ channel site 2 after 60 mins by liquid scintillation spectroscopy
[3] = system: BXPC-3; assay: Cell cycle arrest in human BxPC3 cells assessed as accumulation at S phase at 5 uM after 24 hrs by propidium iodide staining based flow cytometry (reference value: 33%); type: functional
[4] = system: PC-3; assay: Cell cycle arrest in human PC3 cells assessed as accumulation at G1 phase at 0.5 uM after 24 hrs by propidium iodide staining based flow cytometry (reference value: 36%); type: functional
[5] = system: PC-3; assay: Cell cycle arrest in human PC3 cells assessed as accumulation at S phase at 0.5 uM after 24 hrs by propidium iodide staining based flow cytometry (reference value: 42%); type: functional
[6] = system: IGROV-1; assay: Induction of apoptosis in human IGROV1 cells assessed as early apoptotic cells at 50 uM after 24 hrs by Annexin V/7-AAD staining based flow cytometry (reference value: 9%); type: functional
[7] = system: BXPC-3; assay: Cell cycle arrest in human BxPC3 cells assessed as accumulation at G2 phase at 5 uM after 24 hrs by propidium iodide staining based flow cytometry (reference value: 12%); type: functional
[8] = system: IGROV-1; assay: Cell cycle arrest in human IGROV1 cells assessed as accumulation at < G1 phase at 15 uM after 24 hrs by propidium iodide staining based flow cytometry (reference value: 4%); type: functional
[9] = system: IGROV-1; assay: Cell cycle arrest in human IGROV1 cells assessed as accumulation at >G2 phase at 0.5 uM after 24 hrs by propidium iodide staining based flow cytometry (reference value: 21%); type: functional
[10] = system: BXPC-3; assay: Cell cycle arrest in human BxPC3 cells assessed as accumulation at G2 phase at 0.5 uM after 24 hrs by propidium iodide staining based flow cytometry (reference value: 12%); type: functional
[11] = system: IGROV-1; assay: Induction of apoptosis in human IGROV1 cells assessed as early apoptotic cells at 0.5 uM after 24 hrs by Annexin V/7-AAD staining based flow cytometry (reference value: 9%); type: functional
[12] = system: BXPC-3; assay: Cell cycle arrest in human BxPC3 cells assessed as accumulation at G1 phase at 5 uM after 24 hrs by propidium iodide staining based flow cytometry (reference value: 41%); type: functional
[13] = system: DU-145; assay: Cytotoxicity against human DU145 cells after 48 hrs by trypan blue assay; type: functional, cell-based
[14] = molecular target: Sigma non-opioid intracellular receptor 1 (Homo sapiens, UniProt Q99720); assay: Displacement of [3H](+)pentazocine from sigma-1 receptor expressed in human Jurkat cell membranes after 2 hrs by liquid scintillation spectroscopy
[15] = system: IGROV-1; assay: Induction of apoptosis in human IGROV1 cells assessed as total apoptotic death cells at 15 uM after 24 hrs by Annexin V/7-AAD staining based flow cytometry (reference value: 13%); type: functional
[16] = system: DMS-114; assay: Growth inhibition of human DMS114 cells after 48 hrs by SRB assay; type: functional; conditions: DMS-114, 48 h
[17] = system: IGROV-1; assay: Induction of apoptosis in human IGROV1 cells assessed as healthy cells at 0.5 uM after 24 hrs by Annexin V/7-AAD staining based flow cytometry (reference value: 86%); type: functional
[18] = system: PC-3; assay: Induction of apoptosis in human PC3 cells assessed as total apoptotic death cells at 5 uM after 24 hrs by Annexin V/7-AAD staining based flow cytometry (reference value: 7%); type: functional
[19] = system: PC-3; assay: Induction of apoptosis in human PC3 cells assessed as early apoptotic cells at 15 uM after 24 hrs by Annexin V/7-AAD staining based flow cytometry (reference value: 5%); type: functional
[20] = system: HCT-116; assay: Growth inhibition of human HCT116 cells after 48 hrs by SRB assay; type: functional; conditions: HCT-116, 48 h
[21] = system: BXPC-3; assay: Induction of apoptosis in human BxPC3 cells assessed as total apoptotic death cells at 15 uM after 24 hrs by Annexin V/7-AAD staining based flow cytometry (reference value: 20%); type: functional
[22] = system: Mus musculus; assay: Toxicity in SCID mouse assessed as mortality at 40 mg/kg, ip after 3 to 4 weeks chronic treatment; type: organism-based; set-up: dose 40 mg/kg, route intraperitoneal; conditions: in vivo
[23] = system: BXPC-3; assay: Induction of apoptosis in human BxPC3 cells assessed as healthy cells at 50 uM after 24 hrs by Annexin V/7-AAD staining based flow cytometry (reference value: 77%); type: functional
[24] = system: PC-3; assay: Induction of apoptosis in human PC3 cells assessed as early apoptotic cells at 5 uM after 24 hrs by Annexin V/7-AAD staining based flow cytometry (reference value: 5%); type: functional
[25] = system: IGROV-1; assay: Induction of apoptosis in human IGROV1 cells assessed as early apoptotic cells at 5 uM after 24 hrs by Annexin V/7-AAD staining based flow cytometry (reference value: 9%); type: functional
[26] = system: SF-268; assay: Growth inhibition of human SF268 cells after 48 hrs by SRB assay; type: functional; conditions: SF-268, 48 h
[27] = system: U-251; assay: Growth inhibition of human U251 cells after 48 hrs by SRB assay; type: functional; conditions: U-251, 48 h
[28] = system: Mus musculus; assay: Toxicity in CD1 mouse assessed as mortality at 40 mg/kg, ip after 3 to 4 weeks chronic treatment; type: organism-based; set-up: dose 40 mg/kg, route intraperitoneal; conditions: in vivo
[29] = system: MCF7; assay: Cytotoxicity against human MCF7 cells after 48 hrs by trypan blue assay; type: functional, cell-based
[30] = system: MIA PaCa-2; assay: Antitumor activity against human MIAPaCa2 cells xenografted in SCID mouse assessed as tumor weight at 70 mg/kg, ip for 3 consecutive days (reference value: 1225 +/- 308 mg); type: functional; conditions: route intraperitoneal
[31] = system: PC-3; assay: Induction of apoptosis in human PC3 cells assessed as early apoptotic cells at 50 uM after 24 hrs by Annexin V/7-AAD staining based flow cytometry (reference value: 5%); type: functional
[32] = system: PC-3; assay: Cell cycle arrest in human PC3 cells assessed as accumulation at >G2 phase at 50 uM after 24 hrs by propidium iodide staining based flow cytometry (reference value: 6%); type: functional
[33] = system: PC-3; assay: Cell cycle arrest in human PC3 cells assessed as accumulation at G2 phase at 15 uM after 24 hrs by propidium iodide staining based flow cytometry (reference value: 13%); type: functional
[34] = system: PC-3; assay: Induction of apoptosis in human PC3 cells assessed as healthy cells at 50 uM after 24 hrs by Annexin V/7-AAD staining based flow cytometry (reference value: 92%); type: functional
[35] = system: PC-3; assay: Cell cycle arrest in human PC3 cells assessed as accumulation at S phase at 15 uM after 24 hrs by propidium iodide staining based flow cytometry (reference value: 42%); type: functional
[36] = system: HCT-15; assay: Growth inhibition of human HCT15 cells after 48 hrs by SRB assay; type: functional; conditions: HCT-15, 48 h
[37] = system: BXPC-3; assay: Cell cycle arrest in human BxPC3 cells assessed as accumulation at < G1 phase at 5 uM after 24 hrs by propidium iodide staining based flow cytometry (reference value: 9%); type: functional
[38] = read-out: LC50 (the source's name)

Sequence of Sigma non-opioid intracellular receptor 1 (Q99720 whole entry): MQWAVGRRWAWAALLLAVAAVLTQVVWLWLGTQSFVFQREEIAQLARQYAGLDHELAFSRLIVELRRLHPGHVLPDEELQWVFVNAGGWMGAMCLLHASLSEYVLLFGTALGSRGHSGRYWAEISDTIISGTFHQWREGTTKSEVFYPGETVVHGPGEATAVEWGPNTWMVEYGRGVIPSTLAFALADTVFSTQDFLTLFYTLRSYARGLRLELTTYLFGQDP

Question: For CN1CCN(c2ccc(C(c3ccccc3)C34CC5CC(CC(C5)C3)C4)cc2)CC1 (configuration not stated), which Activity [1] is on record?
Answer: 9%

Question: And the IC50 [2]?
Answer: 1.2 µM

Question: What about the Activity [3] of the same compound?
Answer: 30%

Question: What about the Activity [4] of the same compound?
Answer: 33%

Question: And the Activity [5]?
Answer: 40%

Question: And the Activity [6]?
Answer: 46%

Question: And the Activity [7]?
Answer: 12%

Question: And the Activity [8]?
Answer: 11%

Question: What about the Activity [9] of the same compound?
Answer: 20%

Question: What about the Activity [10] of the same compound?
Answer: 12%

Question: And the Activity [11]?
Answer: 8%

Question: What about the Activity [12] of the same compound?
Answer: 43%

Question: What about the Activity [13] of the same compound?
Answer: Active

Question: What about the IC50 [14] of the same compound?
Answer: 0.0032 µM

Question: What about the Activity [15] of the same compound?
Answer: 33%

Question: And the GI50 [16]?
Answer: 5.43 µM

Question: And the TGI [16]?
Answer: 9.17 µM

Question: What about the CC50 [16, 38] of the same compound?
Answer: 100 µM

Question: And the Activity [17]?
Answer: 89%

Question: And the Activity [18]?
Answer: 7%

Question: And the Activity [19]?
Answer: 6%

Question: And the GI50 [20]?
Answer: 4.92 µM

Question: What about the TGI [20] of the same compound?
Answer: 9.37 µM

Question: And the CC50 [20, 38]?
Answer: 100 µM

Question: And the Activity [21]?
Answer: 28%

Question: What about the Activity [22] of the same compound?
Answer: Non-toxic

Question: What about the Activity [23] of the same compound?
Answer: 26%

Question: What about the Activity [24] of the same compound?
Answer: 5%

Question: And the Activity [25]?
Answer: 8%

Question: And the GI50 [26]?
Answer: 18.9 µM

Question: And the TGI [26]?
Answer: 61.6 µM

Question: What about the CC50 [26, 38] of the same compound?
Answer: 100 µM

Question: What about the GI50 [27] of the same compound?
Answer: 4 µM

Question: What about the TGI [27] of the same compound?
Answer: 6.57 µM

Question: And the CC50 [27, 38]?
Answer: 9.14 µM

Question: And the Activity [28]?
Answer: Non-toxic

Question: What about the Activity [29] of the same compound?
Answer: Active

Question: And the Activity [30]?
Answer: 642 mg

Question: What about the Activity [31] of the same compound?
Answer: 24%

Question: And the Activity [32]?
Answer: 11%

Question: What about the Activity [33] of the same compound?
Answer: 9%

Question: And the Activity [34]?
Answer: 61%

Question: And the Activity [35]?
Answer: 33%

Question: And the GI50 [36]?
Answer: 5.54 µM

Question: And the LC50 [36]?
Answer: 100 µM

Question: What about the TGI [36] of the same compound?
Answer: 12.8 µM

Question: What about the Activity [37] of the same compound?
Answer: 8%
